The record followed here is ChEMBL document CHEMBL5291721, “A preclinical secondary pharmacology resource illuminates target-adverse drug reaction associations of marketed drugs” (Nat Commun, 2023).

For experiment [1], the target named is Mu-type opioid receptor (Homo sapiens, UniProt P35372).
The target of experiment [2] is T1, Muscarinic acetylcholine receptor M2 (Homo sapiens, UniProt P08172).
T1 sequence (P08172 whole entry): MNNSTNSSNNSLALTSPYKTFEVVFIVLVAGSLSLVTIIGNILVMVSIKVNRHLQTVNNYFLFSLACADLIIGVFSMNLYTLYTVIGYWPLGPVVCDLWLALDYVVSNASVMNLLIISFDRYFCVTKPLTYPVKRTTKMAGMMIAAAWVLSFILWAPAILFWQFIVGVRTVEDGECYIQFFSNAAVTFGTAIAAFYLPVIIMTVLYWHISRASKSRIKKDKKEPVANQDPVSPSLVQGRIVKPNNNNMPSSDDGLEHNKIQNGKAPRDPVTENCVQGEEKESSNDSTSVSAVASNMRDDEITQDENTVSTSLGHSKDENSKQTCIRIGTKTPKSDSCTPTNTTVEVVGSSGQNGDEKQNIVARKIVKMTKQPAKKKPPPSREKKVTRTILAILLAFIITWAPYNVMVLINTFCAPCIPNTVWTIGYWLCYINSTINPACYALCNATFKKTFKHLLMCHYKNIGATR

In experiment [3] the target is Sodium-dependent dopamine transporter (Homo sapiens, UniProt Q01959).
Experiment [4] has as its target Voltage-gated inwardly rectifying potassium channel KCNH2 (Homo sapiens, UniProt Q12809). It counts as functional.
The target of experiment [5] is Prothrombin (Homo sapiens, UniProt P00734). It counts as functional.
Experiment [6] addresses T2, Amine oxidase [flavin-containing] A (Homo sapiens, UniProt P21397).
T2 sequence (P21397 whole entry): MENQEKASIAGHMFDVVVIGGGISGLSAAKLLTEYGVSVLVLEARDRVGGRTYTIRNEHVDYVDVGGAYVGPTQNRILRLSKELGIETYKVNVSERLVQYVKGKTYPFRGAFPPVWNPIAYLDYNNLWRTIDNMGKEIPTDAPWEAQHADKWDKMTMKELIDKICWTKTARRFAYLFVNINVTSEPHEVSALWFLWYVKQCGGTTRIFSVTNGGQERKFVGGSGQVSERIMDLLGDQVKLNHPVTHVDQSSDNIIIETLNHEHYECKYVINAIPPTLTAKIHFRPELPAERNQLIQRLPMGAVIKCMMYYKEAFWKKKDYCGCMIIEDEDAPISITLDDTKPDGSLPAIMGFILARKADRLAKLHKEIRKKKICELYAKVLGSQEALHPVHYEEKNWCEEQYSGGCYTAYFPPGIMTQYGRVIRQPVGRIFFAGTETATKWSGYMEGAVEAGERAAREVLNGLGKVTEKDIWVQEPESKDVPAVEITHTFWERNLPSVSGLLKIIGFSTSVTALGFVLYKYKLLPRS
It counts as functional.

The target of experiment [7] is Prostaglandin G/H synthase 1 (Homo sapiens, UniProt P23219). It is filed as functional.
Further: assay procedure not described here.

Sequence of Mu-type opioid receptor (P35372 whole entry): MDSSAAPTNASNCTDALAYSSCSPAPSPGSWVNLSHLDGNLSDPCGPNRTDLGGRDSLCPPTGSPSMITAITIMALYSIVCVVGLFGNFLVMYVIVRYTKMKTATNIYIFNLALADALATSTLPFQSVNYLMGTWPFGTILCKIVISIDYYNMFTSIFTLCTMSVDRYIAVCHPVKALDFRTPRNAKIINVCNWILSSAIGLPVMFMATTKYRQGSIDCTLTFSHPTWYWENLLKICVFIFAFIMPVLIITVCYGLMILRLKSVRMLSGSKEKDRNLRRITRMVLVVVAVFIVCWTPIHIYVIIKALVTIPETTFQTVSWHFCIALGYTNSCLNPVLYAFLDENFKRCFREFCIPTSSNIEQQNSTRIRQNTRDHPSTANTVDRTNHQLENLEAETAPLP
Sequence of Voltage-gated inwardly rectifying potassium channel KCNH2 (Q12809 whole entry): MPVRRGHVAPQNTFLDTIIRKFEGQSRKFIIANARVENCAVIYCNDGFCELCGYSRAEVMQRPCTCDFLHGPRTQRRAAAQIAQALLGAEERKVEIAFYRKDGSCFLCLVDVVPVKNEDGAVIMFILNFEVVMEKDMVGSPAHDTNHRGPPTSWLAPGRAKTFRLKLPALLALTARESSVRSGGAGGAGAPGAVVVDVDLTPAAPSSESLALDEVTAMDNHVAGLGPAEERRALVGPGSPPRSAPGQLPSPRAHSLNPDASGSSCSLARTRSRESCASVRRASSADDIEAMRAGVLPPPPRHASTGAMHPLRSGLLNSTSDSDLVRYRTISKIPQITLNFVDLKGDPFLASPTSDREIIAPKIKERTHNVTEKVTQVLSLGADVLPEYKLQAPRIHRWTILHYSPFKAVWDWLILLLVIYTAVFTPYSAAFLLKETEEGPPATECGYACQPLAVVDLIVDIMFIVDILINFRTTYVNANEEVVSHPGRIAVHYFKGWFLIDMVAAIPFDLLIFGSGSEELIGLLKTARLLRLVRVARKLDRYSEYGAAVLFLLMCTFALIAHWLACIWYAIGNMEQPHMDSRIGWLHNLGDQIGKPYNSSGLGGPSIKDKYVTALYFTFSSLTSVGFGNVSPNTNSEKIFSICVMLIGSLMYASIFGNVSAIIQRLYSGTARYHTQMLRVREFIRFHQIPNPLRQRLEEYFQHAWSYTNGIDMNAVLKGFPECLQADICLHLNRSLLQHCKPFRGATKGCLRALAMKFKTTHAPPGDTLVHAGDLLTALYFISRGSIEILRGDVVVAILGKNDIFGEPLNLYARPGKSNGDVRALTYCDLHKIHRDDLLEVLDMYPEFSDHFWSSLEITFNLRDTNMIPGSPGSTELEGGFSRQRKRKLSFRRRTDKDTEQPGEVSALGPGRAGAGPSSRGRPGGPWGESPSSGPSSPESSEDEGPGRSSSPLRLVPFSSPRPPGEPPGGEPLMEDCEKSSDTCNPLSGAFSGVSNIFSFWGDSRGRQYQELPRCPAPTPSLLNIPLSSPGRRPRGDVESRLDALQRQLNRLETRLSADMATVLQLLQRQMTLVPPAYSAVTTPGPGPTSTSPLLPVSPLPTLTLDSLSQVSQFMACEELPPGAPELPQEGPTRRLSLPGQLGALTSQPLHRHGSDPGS
Sequence of Prostaglandin G/H synthase 1 (P23219 whole entry): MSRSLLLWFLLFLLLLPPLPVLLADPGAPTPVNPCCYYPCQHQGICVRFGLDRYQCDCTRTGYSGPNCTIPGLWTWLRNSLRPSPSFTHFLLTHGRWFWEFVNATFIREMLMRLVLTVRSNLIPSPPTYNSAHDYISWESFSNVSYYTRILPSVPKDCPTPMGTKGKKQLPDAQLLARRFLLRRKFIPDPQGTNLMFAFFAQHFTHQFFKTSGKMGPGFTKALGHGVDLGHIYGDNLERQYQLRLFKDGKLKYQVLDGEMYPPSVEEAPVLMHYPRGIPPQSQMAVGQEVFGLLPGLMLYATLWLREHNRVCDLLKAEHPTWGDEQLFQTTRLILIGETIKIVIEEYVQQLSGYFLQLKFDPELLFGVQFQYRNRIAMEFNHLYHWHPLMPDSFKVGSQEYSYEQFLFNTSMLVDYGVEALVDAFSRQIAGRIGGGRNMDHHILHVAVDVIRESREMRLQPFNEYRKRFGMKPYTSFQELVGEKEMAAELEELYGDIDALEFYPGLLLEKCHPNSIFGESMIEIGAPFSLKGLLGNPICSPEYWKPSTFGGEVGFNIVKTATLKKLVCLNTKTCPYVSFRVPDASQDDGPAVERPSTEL
Sequence of Sodium-dependent dopamine transporter (Q01959 whole entry): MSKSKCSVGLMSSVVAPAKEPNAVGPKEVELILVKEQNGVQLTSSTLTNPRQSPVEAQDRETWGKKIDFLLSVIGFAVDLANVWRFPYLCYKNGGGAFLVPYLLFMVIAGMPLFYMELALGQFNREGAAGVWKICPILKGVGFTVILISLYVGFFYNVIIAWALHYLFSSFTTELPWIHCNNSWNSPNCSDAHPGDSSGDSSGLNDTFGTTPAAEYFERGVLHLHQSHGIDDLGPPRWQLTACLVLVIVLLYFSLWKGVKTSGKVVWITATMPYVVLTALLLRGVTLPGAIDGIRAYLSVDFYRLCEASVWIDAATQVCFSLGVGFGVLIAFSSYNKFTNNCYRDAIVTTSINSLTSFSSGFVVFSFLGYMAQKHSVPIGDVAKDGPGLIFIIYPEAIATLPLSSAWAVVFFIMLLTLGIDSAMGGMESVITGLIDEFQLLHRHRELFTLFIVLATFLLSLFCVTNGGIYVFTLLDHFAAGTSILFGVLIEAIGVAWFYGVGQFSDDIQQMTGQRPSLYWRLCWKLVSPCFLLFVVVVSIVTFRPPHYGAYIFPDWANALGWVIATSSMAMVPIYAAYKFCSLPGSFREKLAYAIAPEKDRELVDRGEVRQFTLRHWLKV

As for `O=C(O)COc1ccc(C(=O)c2cccs2)c(Cl)c1Cl`, the AC50 in experiment [1], in experiment [2], in experiment [3], in experiment [4], in experiment [5] and in experiment [6] was more than 30 µM each time. In experiment [7], this compound returned an AC50 of more than 30 µM.

`COc1c2ccoc2cc2oc(=O)ccc12` [BERGAPTEN]: the AC50 in experiment [1] was more than 30 µM; in experiment [2], more than 30 µM; in experiment [3], more than 30 µM; in experiment [4] it was more than 30 µM; in experiment [5], more than 30 µM; in experiment [6], more than 10 µM. Besides, the AC50 in experiment [7] was more than 30 µM.

In the case of `CNC(=O)Oc1cccc2ccccc12` [CARBARIL], the AC50 in experiment [1], in experiment [2], in experiment [3], in experiment [4], in experiment [5] and in experiment [6] was more than 30 µM each time. Also, in experiment [7], the AC50 came out at 3.71 µM.

As to `C/C=C/C/C=C/CCC(=O)[C@H]1O[C@H]1C(N)=O` [CERULENIN], the AC50 in experiment [1], in experiment [2], in experiment [3], in experiment [4], in experiment [5] and in experiment [6] was more than 30 µM each time. The AC50 in experiment [7] was more than 30 µM.

`CN(C)[C@@H]1C(O)=C(C(N)=O)C(=O)[C@@]2(O)C(O)=C3C(=O)c4c(O)ccc(Cl)c4[C@@](C)(O)[C@H]3C[C@@H]12` [CHLORTETRACYCLINE]: the AC50 in experiment [1], in experiment [2], in experiment [3], in experiment [4], in experiment [5] and in experiment [6] was more than 30 µM in each case. The same compound registered an AC50 in experiment [7] of more than 30 µM.

In the case of `C[C@H]1O[C@@H](n2cc(F)c(=O)[nH]c2=O)[C@H](O)[C@@H]1O` [DOXIFLURIDINE], the AC50 in experiment [1], in experiment [2], in experiment [3], in experiment [4], in experiment [5] and in experiment [6] was more than 30 µM each time. In experiment [7], this compound returned an AC50 of more than 30 µM.

In the case of `OC[C@H]1O[C@@H](c2ccc(Cl)c(Cc3ccc(O[C@H]4CCOC4)cc3)c2)[C@H](O)[C@@H](O)[C@@H]1O` [EMPAGLIFLOZIN], the AC50 in experiment [1], in experiment [2], in experiment [3], in experiment [4], in experiment [5] and in experiment [6] was more than 30 µM in each case. Moreover, the AC50 in experiment [7] is more than 30 µM.

As for `CC(C)(O)CNc1nc(Nc2ccnc(C(F)(F)F)c2)nc(-c2cccc(C(F)(F)F)n2)n1` [ENASIDENIB], the AC50 is 21.5 µM in experiment [1]; more than 30 µM in experiment [2]; more than 30 µM in experiment [3]; more than 30 µM in experiment [4]; more than 30 µM in experiment [5]; more than 30 µM in experiment [6]. In experiment [7], this compound registered an AC50 of 14.1 µM.

`CC[C@H](c1ccc(O)cc1)[C@@H](CC)c1ccc(O)cc1` [HEXESTROL]: the AC50 in experiment [1] was 15 µM; in experiment [2] it was 18.7 µM; in experiment [3] it was 3.31 µM; in experiment [4] it was more than 30 µM; in experiment [5] it was more than 30 µM; in experiment [6] it was more than 30 µM. The same compound had an AC50 in experiment [7] of more than 30 µM.

Regarding `O=C1/C(=C2\Nc3ccc(S(=O)(=O)O)cc3C2=O)Nc2ccc(S(=O)(=O)O)cc21` [INDIGOTINDISULFONATE], the AC50 is more than 30 µM in experiment [1]; more than 30 µM in experiment [2]; more than 30 µM in experiment [3]; more than 30 µM in experiment [4]; 2.83 µM in experiment [5]; more than 30 µM in experiment [6]. The AC50 in experiment [7] was determined as 21.5 µM.

Consider `CC(C)C[C@H](NC(=O)CNC(=O)c1cc(Cl)ccc1Cl)B(O)O` [IXAZOMIB], for which the half-maximal activity concentration (AC50) in experiment [1], in experiment [2], in experiment [3], in experiment [4], in experiment [5] and in experiment [6] was more than 30 µM each time. In addition, the AC50 in experiment [7] was more than 30 µM.

As to `CC(CCc1ccccc1)NCC(O)c1ccc(O)c(C(N)=O)c1` (centres undefined) [LABETALOL], the AC50 in experiment [1] is 2.42 µM; in experiment [2] it was more than 30 µM; in experiment [3], 2.22 µM; in experiment [4], more than 30 µM; in experiment [5] it was more than 30 µM; in experiment [6] it was more than 30 µM. In experiment [7], this compound registered an AC50 of more than 30 µM.

In the case of `C=CCN1CC[C@]23CCCC[C@H]2[C@H]1Cc1ccc(O)cc13` [LEVALLORPHAN], the half-maximal activity concentration (AC50) is 0.003 µM in experiment [1]; 8.91 µM in experiment [2]; more than 30 µM in experiment [3]; 14 µM in experiment [4]; more than 30 µM in experiment [5]; more than 30 µM in experiment [6]. In addition, in experiment [7], the AC50 was more than 30 µM.

As to `C[N+](C)(C)C[C@H](O)CC(=O)[O-]` [LEVOCARNITINE], the concentration at half-maximal activity (AC50) in experiment [1], in experiment [2], in experiment [3], in experiment [4], in experiment [5] and in experiment [6] was more than 30 µM each time. Moreover, the AC50 in experiment [7] is more than 30 µM.

Take `C[C@@H]1C[C@H]2[C@@H]3CCC4=CC(=O)C=C[C@]4(C)[C@@]3(Cl)[C@@H](O)C[C@]2(C)[C@@]1(OC(=O)c1ccco1)C(=O)CCl` [MOMETASONE FUROATE]: the AC50 in experiment [1], in experiment [2], in experiment [3], in experiment [4], in experiment [5] and in experiment [6] was more than 30 µM each time. For the same compound, the AC50 in experiment [7] is more than 30 µM.

In the case of `Cc1ccccc1C(=O)Nc1ccc(C(=O)N2CCCC(N(C)C)c3ccccc32)cc1` (centres undefined) [MOZAVAPTAN], the AC50 was 2.48 µM in experiment [1]; more than 30 µM in experiment [2]; more than 30 µM in experiment [3]; more than 30 µM in experiment [4]; more than 30 µM in experiment [5]; more than 30 µM in experiment [6]. In experiment [7], this compound returned an AC50 of more than 30 µM.

For `O=C(O)c1cc(/N=N/c2ccc(O)c(C(=O)O)c2)ccc1O` [OLSALAZINE], the AC50 in experiment [1], in experiment [2], in experiment [3], in experiment [4], in experiment [5] and in experiment [6] was more than 30 µM each time. Also, the AC50 in experiment [7] was more than 30 µM.

As to `CCOC(=O)C1=C[C@@H](OC(CC)CC)[C@H](NC(C)=O)[C@@H](N)C1` [OSELTAMIVIR], the AC50 in experiment [1], in experiment [2], in experiment [3], in experiment [4], in experiment [5] and in experiment [6] was more than 30 µM in each case. Besides, the AC50 in experiment [7] is more than 30 µM.

For the compound `Cc1onc(-c2ccccc2)c1C(=O)N[C@@H]1C(=O)N2[C@@H]1SC(C)(C)[C@@H]2C(=O)O` [OXACILLIN], the AC50 in experiment [1], in experiment [2], in experiment [3], in experiment [4], in experiment [5] and in experiment [6] was more than 30 µM in each case. Moreover, in experiment [7], the AC50 was more than 30 µM.

Consider `CCn1cc(C(=O)O)c(=O)c2cc3c(cc21)OCO3` [OXOLINIC ACID], for which the AC50 in experiment [1], in experiment [2], in experiment [3], in experiment [4], in experiment [5] and in experiment [6] was more than 30 µM in each case. For the same compound, the AC50 in experiment [7] was more than 30 µM.

With `FC(F)(F)c1ccc(CNc2ccc(Cc3c[nH]c4ncc(Cl)cc34)cn2)cn1` [PEXIDARTINIB], the AC50 in experiment [1] was 13.4 µM; in experiment [2] it was 0.496 µM; in experiment [3], 9.3 µM; in experiment [4] it was 8.6 µM; in experiment [5], more than 30 µM; in experiment [6] it was more than 30 µM. In addition, in experiment [7], the AC50 is more than 30 µM.

For `CC[C@@]1(O)C(=O)OCc2c1cc1n(c2=O)Cc2cc3c([N+](=O)[O-])cccc3nc2-1` [RUBITECAN], the concentration at half-maximal activity (AC50) is more than 30 µM in experiment [1]; more than 30 µM in experiment [2]; more than 30 µM in experiment [3]; more than 30 µM in experiment [5]; more than 30 µM in experiment [6]; 26.8 µM in experiment [7].

Consider `CC(=O)Oc1cc(C(F)(F)F)ccc1C(=O)O` [TRIFLUSAL], for which the AC50 in experiment [1], in experiment [2], in experiment [3], in experiment [5], in experiment [6] and in experiment [7] was more than 30 µM each time.

One may read the AC50 as the concentration at which the activity in the assay is half-maximal.
